# Laboratory results: the supplement of paper PMC10307832
# Columns and labels:
# Experiment in all cases: relative viability (nuclei count vs DMSO), 5 days (fraction); higher = more cells survive
# A-427 = tested on: A-427
# Summary of the method: (§1)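 Lung cancer cell lines, seeded in 1536-well plates, were treated the following day by pin tool with a single drug or with five library-drug doses (not always all listed) in √10 steps on top of a fixed anchor-drug dose. Cells were fixed and nuclei stained in one step after 5 days, and nuclei were counted. Relative viability is the nuclei count for treated wells divided by that for vehicle wells, reported as medians of duplicate plates.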
# COR-L23 = tested on: COR-L23
# Summary of the method: as §1
# ChaGo-K-1 = tested on: ChaGo-K-1
# Summary of the method: as §1
# EKVX = tested on: EKVX
# Summary of the method: as §1
# EPLC-272H = tested on: EPLC-272H
# Summary of the method: as §1
# HCC-366 = tested on: HCC-366
# Summary of the method: as §1
# HCC-44 = tested on: HCC-44
# Summary of the method: as §1
# HCC-78 = tested on: HCC-78
# Summary of the method: as §1
# HOP-62 = tested on: HOP-62
# Summary of the method: as §1
# LOU-NH91 = tested on: LOU-NH91
# Summary of the method: as §1
# NCI-H1395 = tested on: NCI-H1395
# Summary of the method: as §1
# NCI-H1650 = tested on: NCI-H1650
# Summary of the method: as §1
# NCI-H1734 = tested on: NCI-H1734
# Summary of the method: as §1
# NCI-H1915 = tested on: NCI-H1915
# Summary of the method: as §1
# NCI-H2023 = tested on: NCI-H2023
# Summary of the method: as §1
# NCI-H2087 = tested on: NCI-H2087
# Summary of the method: as §1
# NCI-H3122 = tested on: NCI-H3122
# Summary of the method: as §1
# NCI-H358 = tested on: NCI-H358
# Summary of the method: as §1
# NCI-H650 = tested on: NCI-H650
# Summary of the method: as §1
# NCI-H661 = tested on: NCI-H661
# Summary of the method: as §1
# NCI-H838 = tested on: NCI-H838
# Summary of the method: as §1
# SK-MES-1 = tested on: SK-MES-1
# Summary of the method: as §1
# NCI-H596 = tested on: NCI-H596
# Summary of the method: as §1
smiles,measurement,setting,value
Cc1cnc(-c2cnc(NCCNc3ccc(C#N)cn3)nc2-c2ccc(Cl)cc2Cl)[nH]1 + CC(=O)c1c(C)c2cnc(Nc3ccc(N4CCNCC4)cn3)nc2n(C2CCCC2)c1=O [Palbociclib] (partner 0.5 µM),relative viability,A-427; first compound 0.08 µM,0.537
same,relative viability,A-427; first compound 0.253 µM,0.539
same,relative viability,A-427; first compound 0.8 µM,0.567
same,relative viability,A-427; first compound 2.53 µM,0.563
same,relative viability,COR-L23; first compound 0.08 µM,0.328
same,relative viability,COR-L23; first compound 0.253 µM,0.266
same,relative viability,COR-L23; first compound 0.8 µM,0.272
same,relative viability,COR-L23; first compound 2.53 µM,0.264
same,relative viability,ChaGo-K-1; first compound 0.08 µM,0.929
same,relative viability,ChaGo-K-1; first compound 0.253 µM,0.807
same,relative viability,ChaGo-K-1; first compound 0.8 µM,0.903
same,relative viability,ChaGo-K-1; first compound 2.53 µM,0.833
same,relative viability,EKVX; first compound 0.08 µM,0.493
same,relative viability,EKVX; first compound 0.253 µM,0.316
same,relative viability,EKVX; first compound 0.8 µM,0.417
same,relative viability,EKVX; first compound 2.53 µM,0.444
same,relative viability,EPLC-272H; first compound 0.08 µM,0.345
same,relative viability,EPLC-272H; first compound 0.253 µM,0.323
same,relative viability,EPLC-272H; first compound 0.8 µM,0.309
same,relative viability,EPLC-272H; first compound 2.53 µM,0.373
same,relative viability,HCC-366; first compound 0.08 µM,0.404
same,relative viability,HCC-366; first compound 0.253 µM,0.331
same,relative viability,HCC-366; first compound 0.8 µM,0.391
same,relative viability,HCC-366; first compound 2.53 µM,0.312
same,relative viability,HCC-44; first compound 0.08 µM,0.957
same,relative viability,HCC-44; first compound 0.253 µM,0.931
same,relative viability,HCC-44; first compound 0.8 µM,0.97
same,relative viability,HCC-44; first compound 2.53 µM,0.985
same,relative viability,HCC-78; first compound 0.08 µM,0.463
same,relative viability,HCC-78; first compound 0.253 µM,0.441
same,relative viability,HCC-78; first compound 0.8 µM,0.466
same,relative viability,HCC-78; first compound 2.53 µM,0.467
same,relative viability,HOP-62; first compound 0.08 µM,0.531
same,relative viability,HOP-62; first compound 0.253 µM,0.426
same,relative viability,HOP-62; first compound 0.8 µM,0.446
same,relative viability,HOP-62; first compound 2.53 µM,0.45
same,relative viability,LOU-NH91; first compound 0.08 µM,0.547
same,relative viability,LOU-NH91; first compound 0.253 µM,0.515
same,relative viability,LOU-NH91; first compound 0.8 µM,0.581
same,relative viability,LOU-NH91; first compound 2.53 µM,0.527
same,relative viability,NCI-H1395; first compound 0.08 µM,0.762
same,relative viability,NCI-H1395; first compound 0.253 µM,0.619
same,relative viability,NCI-H1395; first compound 0.8 µM,0.609
same,relative viability,NCI-H1395; first compound 2.53 µM,0.65
same,relative viability,NCI-H1650; first compound 0.08 µM,0.368
same,relative viability,NCI-H1650; first compound 0.253 µM,0.306
same,relative viability,NCI-H1650; first compound 0.8 µM,0.306
same,relative viability,NCI-H1650; first compound 2.53 µM,0.258
same,relative viability,NCI-H1734; first compound 0.08 µM,0.403
same,relative viability,NCI-H1734; first compound 0.253 µM,0.342
same,relative viability,NCI-H1734; first compound 0.8 µM,0.391
same,relative viability,NCI-H1734; first compound 2.53 µM,0.189
same,relative viability,NCI-H1915; first compound 0.08 µM,0.547
same,relative viability,NCI-H1915; first compound 0.8 µM,0.571
same,relative viability,NCI-H1915; first compound 2.53 µM,0.601
same,relative viability,NCI-H2023; first compound 0.08 µM,0.41
same,relative viability,NCI-H2023; first compound 0.253 µM,0.344
same,relative viability,NCI-H2023; first compound 0.8 µM,0.387
same,relative viability,NCI-H2023; first compound 2.53 µM,0.541
same,relative viability,NCI-H2087; first compound 0.08 µM,0.235
same,relative viability,NCI-H2087; first compound 0.8 µM,0.227
same,relative viability,NCI-H2087; first compound 2.53 µM,0.146
same,relative viability,NCI-H3122; first compound 0.08 µM,0.178
same,relative viability,NCI-H3122; first compound 0.8 µM,0.181
same,relative viability,NCI-H3122; first compound 2.53 µM,0.188
same,relative viability,NCI-H358; first compound 0.08 µM,0.13
same,relative viability,NCI-H358; first compound 0.253 µM,0.14
same,relative viability,NCI-H358; first compound 0.8 µM,0.134
same,relative viability,NCI-H358; first compound 2.53 µM,0.143
same,relative viability,NCI-H650; first compound 0.08 µM,0.311
same,relative viability,NCI-H650; first compound 0.253 µM,0.334
same,relative viability,NCI-H650; first compound 0.8 µM,0.317
same,relative viability,NCI-H650; first compound 2.53 µM,0.351
same,relative viability,NCI-H661; first compound 0.08 µM,0.44
same,relative viability,NCI-H661; first compound 0.253 µM,0.433
same,relative viability,NCI-H661; first compound 0.8 µM,0.432
same,relative viability,NCI-H661; first compound 2.53 µM,0.506
same,relative viability,NCI-H838; first compound 0.08 µM,0.259
same,relative viability,NCI-H838; first compound 0.253 µM,0.256
same,relative viability,NCI-H838; first compound 0.8 µM,0.253
same,relative viability,NCI-H838; first compound 2.53 µM,0.389
same,relative viability,SK-MES-1; first compound 0.08 µM,0.363
same,relative viability,SK-MES-1; first compound 0.253 µM,0.332
same,relative viability,SK-MES-1; first compound 0.8 µM,0.379
same,relative viability,SK-MES-1; first compound 2.53 µM,0.394
Cc1cnc(-c2cnc(NCCNc3ccc(C#N)cn3)nc2-c2ccc(Cl)cc2Cl)[nH]1 + CCNC(=O)c1noc(-c2cc(C(C)C)c(O)cc2O)c1-c1ccc(CN2CCOCC2)cc1 [Luminespib] (partner 0.01 µM),relative viability,A-427; first compound 0.08 µM,0.954
same,relative viability,A-427; first compound 0.253 µM,0.828
same,relative viability,A-427; first compound 0.8 µM,0.814
same,relative viability,A-427; first compound 2.53 µM,0.916
same,relative viability,COR-L23; first compound 0.08 µM,0.784
same,relative viability,COR-L23; first compound 0.253 µM,0.578
same,relative viability,COR-L23; first compound 0.8 µM,0.659
same,relative viability,COR-L23; first compound 2.53 µM,0.621
same,relative viability,ChaGo-K-1; first compound 0.08 µM,0.622
same,relative viability,ChaGo-K-1; first compound 0.253 µM,0.608
same,relative viability,ChaGo-K-1; first compound 0.8 µM,0.603
same,relative viability,ChaGo-K-1; first compound 2.53 µM,0.538
same,relative viability,EKVX; first compound 0.08 µM,0.85
same,relative viability,EKVX; first compound 0.253 µM,0.824
same,relative viability,EKVX; first compound 0.8 µM,0.911
same,relative viability,EKVX; first compound 2.53 µM,0.88
same,relative viability,EPLC-272H; first compound 0.08 µM,0.308
same,relative viability,EPLC-272H; first compound 0.253 µM,0.313
same,relative viability,EPLC-272H; first compound 0.8 µM,0.209
same,relative viability,EPLC-272H; first compound 2.53 µM,0.192
same,relative viability,HCC-44; first compound 0.08 µM,1.21
same,relative viability,HCC-44; first compound 0.253 µM,0.968
same,relative viability,HCC-44; first compound 0.8 µM,1.14
same,relative viability,HCC-44; first compound 2.53 µM,1.24
same,relative viability,HOP-62; first compound 0.08 µM,0.955
same,relative viability,HOP-62; first compound 0.253 µM,0.841
same,relative viability,HOP-62; first compound 0.8 µM,0.79
same,relative viability,HOP-62; first compound 2.53 µM,0.738
same,relative viability,LOU-NH91; first compound 0.08 µM,0.367
same,relative viability,LOU-NH91; first compound 0.253 µM,0.369
same,relative viability,LOU-NH91; first compound 0.8 µM,0.322
same,relative viability,LOU-NH91; first compound 2.53 µM,0.376
same,relative viability,NCI-H1395; first compound 0.08 µM,0.627
same,relative viability,NCI-H1395; first compound 0.253 µM,0.708
same,relative viability,NCI-H1395; first compound 0.8 µM,0.65
same,relative viability,NCI-H1395; first compound 2.53 µM,0.677
same,relative viability,NCI-H1650; first compound 0.08 µM,0.195
same,relative viability,NCI-H1650; first compound 0.253 µM,0.207
same,relative viability,NCI-H1650; first compound 0.8 µM,0.164
same,relative viability,NCI-H1650; first compound 2.53 µM,0.193
same,relative viability,NCI-H1734; first compound 0.08 µM,0.208
same,relative viability,NCI-H1734; first compound 0.253 µM,0.199
same,relative viability,NCI-H1734; first compound 0.8 µM,0.144
same,relative viability,NCI-H1734; first compound 2.53 µM,0.23
same,relative viability,NCI-H1915; first compound 0.08 µM,0.808
same,relative viability,NCI-H1915; first compound 0.253 µM,0.587
same,relative viability,NCI-H1915; first compound 0.8 µM,0.753
same,relative viability,NCI-H1915; first compound 2.53 µM,0.779
same,relative viability,NCI-H2023; first compound 0.08 µM,0.872
same,relative viability,NCI-H2023; first compound 0.253 µM,0.751
same,relative viability,NCI-H2023; first compound 0.8 µM,0.863
same,relative viability,NCI-H2023; first compound 2.53 µM,0.774
same,relative viability,NCI-H2087; first compound 0.08 µM,0.128
same,relative viability,NCI-H2087; first compound 0.253 µM,0.128
same,relative viability,NCI-H2087; first compound 0.8 µM,0.208
same,relative viability,NCI-H2087; first compound 2.53 µM,0.175
same,relative viability,NCI-H3122; first compound 0.08 µM,0.124
same,relative viability,NCI-H3122; first compound 0.8 µM,0.0778
same,relative viability,NCI-H3122; first compound 2.53 µM,0.0737
same,relative viability,NCI-H358; first compound 0.08 µM,0.24
same,relative viability,NCI-H358; first compound 0.253 µM,0.317
same,relative viability,NCI-H358; first compound 0.8 µM,0.283
same,relative viability,NCI-H358; first compound 2.53 µM,0.0322
same,relative viability,NCI-H596; first compound 0.08 µM,1.06
same,relative viability,NCI-H596; first compound 0.253 µM,1.03
same,relative viability,NCI-H596; first compound 0.8 µM,1.05
same,relative viability,NCI-H596; first compound 2.53 µM,1.24
same,relative viability,NCI-H650; first compound 0.08 µM,0.806
same,relative viability,NCI-H650; first compound 0.253 µM,0.768
same,relative viability,NCI-H650; first compound 0.8 µM,0.758
same,relative viability,NCI-H650; first compound 2.53 µM,0.76
same,relative viability,NCI-H661; first compound 0.08 µM,0.889
same,relative viability,NCI-H661; first compound 0.253 µM,0.881
same,relative viability,NCI-H661; first compound 0.8 µM,0.904
same,relative viability,NCI-H661; first compound 2.53 µM,0.829
same,relative viability,NCI-H838; first compound 0.08 µM,0.326
same,relative viability,NCI-H838; first compound 0.253 µM,0.287
same,relative viability,NCI-H838; first compound 0.8 µM,0.333
same,relative viability,NCI-H838; first compound 2.53 µM,0.301
same,relative viability,SK-MES-1; first compound 0.08 µM,0.859
same,relative viability,SK-MES-1; first compound 0.253 µM,0.757
same,relative viability,SK-MES-1; first compound 0.8 µM,0.838
same,relative viability,SK-MES-1; first compound 2.53 µM,0.921
